Experimental data as given in article PMC6354023, “A phase I study of the HDM2 antagonist SAR405838 combined with the MEK inhibitor pimasertib in patients with advanced solid tumours” (British Journal of Cancer, 2018).
Read-outs that look alike come from different tables or passages of the source.

Legend:
[1] = cited from earlier work
MIC-1 = MIC-1 levels in plasma by ELISA; type: in vivo, human
Experimental: MIC-1 protein concentrations were measured in plasma samples using an analytically validated enzyme-linked immunosorbent assay (Quantikine® Human GDF-15 immunoassay). pERK levels were determined by evaluating median value changes in response to ex vivo stimulation with or without phorbol myristate acetate (PMA) over time in whole-blood samples (CD 45^+ and lymphocyte populations) by flow cytometry (BD FACSCanto™ II instrument). Stimulated pERK levels were calculated as percentage (PMA-dimethylsulphoxide [DMSO])/DMSO).

[2] = Pharmacokinetics of SAR405838 (whole-blood concentrations) in combination; type: in vivo, human; settings: for AUC(0-t) / Cmax / half-life / Tmax: human, whole blood, oral; for AUC(0-t): read-out: SAR405838 AUC0–24, mean ± SD; for Cmax: read-out: SAR405838 Cmax, mean ± SD; for half-life: read-out: SAR405838 t1/2 (converted); for Tmax: read-out: SAR405838 tmax, median (range)
Excerpt: Blood samples were collected on Days 1 (for pimasertib only), 2, 3, 8 and 15 of Cycle 1, on Days 1 and 2 of Cycle 2, and on Day 1 of Cycles 3 and 4, to determine the whole-blood and plasma concentrations of SAR405838 and pimasertib, respectively.

[3] = Safety assessments: adverse events (NCI-CTCAE v4.03), laboratory abnormalities; type: in vivo, human; settings: of 26 treated patients, in combination
Experimental: Safety was assessed by the evaluation of AEs, DLTs, changes in vital signs, ECOG PS, physical examinations,12-lead electrocardiograms, determination of LVEF, ophthalmological examinations and clinical laboratory tests (including haematology, coagulation, blood chemistry and urinalysis).

[4] = DL1 SAR405838 200 mg QD + pimasertib 45 mg BID, C1D2
[5] = DL1 SAR405838 200 mg QD + pimasertib 45 mg BID, C2D1
[6] = DL2a SAR405838 200 mg QD + pimasertib 60 mg QD, C1D2
[7] = DL2a SAR405838 200 mg QD + pimasertib 60 mg QD, C2D1
[8] = DL2b SAR405838 300 mg QD + pimasertib 45 mg BID, C1D2
[9] = DL2b SAR405838 300 mg QD + pimasertib 45 mg BID, C2D1
[10] = DL3a SAR405838 300 mg QD + pimasertib 60 mg QD, C1D2
[11] = DL3a SAR405838 300 mg QD + pimasertib 60 mg QD, C2D1

In the case of `CC(C)(C)C[C@@H]1N[C@@H](C(=O)N[C@H]2CC[C@H](O)CC2)[C@H](c2cccc(Cl)c2F)[C@]12C(=O)Nc1cc(Cl)ccc12` [SAR405838], the “Main dose-limiting toxicity, monotherapy” value [1] is given as “thrombocytopenia”, the “MTD and recommended phase II dose, monotherapy” value ([1]; once daily (QD)) is given as 300 mg and the “Time of peak MIC-1 elevation” value (MIC-1; C1D2 and C2D1) is given as 6 h. For the same compound, the “Greatest increase in MIC-1 in the DL1 cohort” value (MIC-1; patient with confirmed PR (endometrial tumour)) was 8.8 fold, the “MIC-1 elevation, mean vs baseline” value (MIC-1; plasma, all patients at C1D2 and C2D1) was 3.5+ /− 0.8 fold and the “PK in combination compared with PK as monotherapy” value ([2]; SAR405838 and pimasertib administered in combination) was “similar”. The “Exposure change with dose increase (50%)” value ([2]; between DL1/DL2a (SAR405838 200 mg) and DL2b/DL3a (SAR405838 300 mg)) was “did not result in SAR405838 exposure increase”, the AUC(0-t) [2, 4] was 19300 ng·h/mL and the Cmax [2, 4] was 1570 ± 876 ng/mL. It also gave a half-life [2, 4] of 16.1 ± 7.75 h, a Tmax [2, 4] of 2 h and an AUC(0-t) [2, 5] of 14600 ng·h/mL. For the same compound, the Cmax [2, 5] was 1250 ± 668 ng/mL, the half-life [2, 5] was 10.8 h and the Tmax [2, 5] was 1.8 h. It also gave an AUC(0-t) [2, 6] of 20800 ng·h/mL, a Cmax [2, 6] of 1500 ± 634 ng/mL and a half-life [2, 6] of 8.86 h. For the same compound, the Tmax [2, 6] was 2 h, the AUC(0-t) [2, 7] was 15600 ng·h/mL and the Cmax [2, 7] was 1050 ± 581 ng/mL. The half-life [2, 7] was 10 h, the Tmax [2, 7] was 2.8 h and the AUC(0-t) [2, 8] was 16300 ng·h/mL. It also gave a Cmax [2, 8] of 1100 ± 547 ng/mL, a half-life [2, 8] of 15.5 ± 4.33 h and a Tmax [2, 8] of 3 h. For the same compound, the AUC(0-t) [2, 9] was 15000 ng·h/mL, the Cmax [2, 9] was 1100 ± 361 ng/mL and the half-life [2, 9] was 13.4 ± 2.38 h. For the same compound, the Tmax [2, 9] was 1.5 h, the AUC(0-t) [2, 10] was 21400 ng·h/mL and the Cmax [2, 10] was 1490 ± 939 ng/mL. The half-life [2, 10] was 13.3 ± 4.94 h, the Tmax [2, 10] was 4 h and the AUC(0-t) [2, 11] was 21200 ng·h/mL. It also gave a Cmax [2, 11] of 1440 ± 583 ng/mL, a half-life [2, 11] of 14.9 ± 11.1 h and a Tmax [2, 11] of 2 h. For the same compound, the “Patients with dose modification, reduction or omission” value [3] was 17 patients.
